From US8722667B2, “Compositions and methods for inhibiting the proliferation of cells” (The Regents of the University of Michigan, priority 1999, dated 2014)

Experiments:
[1] = target: T1, mitochondrial F1F0-ATPase (Bos taurus, UniProt P13621); test: ATPase activity in sub-mitochondrial particles (SMPs); type: biochemical, bovine; details: at 80 μM
T1 construct: from tissue
From the text: Oligomycin, a macrolide natural product that binds to the mitochondrial F1F0-ATPase, induces a state 3 to 4 transition and generates O2^− like Bz-423. Based on these similarities, it is possible that the F1F0-ATPase is also the molecular target for Bz-423. To test this hypothesis, the effect of Bz-423 on ATPase activity in sub-mitochondrial particles (SMPs) was examined.
>40 derivatives of Bz-423 were developed to determine the elements on this novel agent required for biological activity. […] The potency of these analogues in cell based assays correlated with the ED50 values in ATPase inhibition experiments using SMPs.

[2] = tested on: ornithine decarboxylase (ODC); test: ODC activity in treated cells, conversion of 3H-ornithine to putrescine; type: cell-based; details: cells treated 4 h
Method: In these experiments, the conversion of ornithine to putrescine was quantified using ^3H-ornithine. For comparisons, control cells were treated with vehicle control or difluoromethyl ornithine (DFMO), a potent inhibitor of ornithine decarboxylase (like Bz-423, DFMO is a potent anti-proliferative agent). […] The reduction in ODC activity was paralleled by a decrease in ODC protein levels measured under the same conditions.
As described above, Bz-423 induced apoptosis was signaled by an ROS response that arose from MRC complex III as a result of the state 3 to 4 transition. It was next sought to determine if the ROS response, critical for apoptosis, also mediated these effects on ODC. If the ROS was required for the decrease in ODC activity, it would likewise be implicated as potentially part of the anti-proliferative response to Bz-423. To test this, Ramos cells were treated with Bz-423, DFMO, or vehicle control for 4 h. In parallel, a second group of cells was pre-incubated with MnTBAP to limit the ROS and then cultured with Bz-423, DFMO, and vehicle control.

[3] = tested on: sub-mitochondrial particles; test: redox cycling, NADH and NAD(P)H oxidation assays with sub-mitochondrial particles; type: biochemical; details: SMPs
Method: By contrast, replacing the hydroxyl with chlorine or azide, or methylating the phenol effectively abolishes the cytotoxic activity of Bz-423. […] Such agents accept an electron from MRC enzymes and transfer it back to the chain at point of higher reducing potential. This type of ‘redox cycling’ consumes endogenous reducing equivalents (e.g., glutathione) along with […] nucleotides and results in cell death. To distinguish between these alternatives, it was determined whether Bz-423 redox cycles in the presence of sub-mitochondrial particles using standard NADH and NAD(P)H oxidation assays.

[4] = tested on: isolated rat liver mitochondria; test: ROS production in isolated mitochondria (DCF formation); type: biochemical; details: for ROS production: mitochondria in state 4; for increase of the rate of ROS production versus control: state 3 respiration, after the induction phase
Method: Male Long Evans rats are starved overnight and sacrificed by decapitation. Liver samples are homogenized in ice cold buffer A (250 mM sucrose, 10 mM Tris, 0.1 mM EGTA, pH 7.4), and nuclei and cellular debris are pelleted ([…], 830g, 4° C.). Mitochondria are collected by centrifugation (10 min, 15,000g, 4° C.), and the supernatant is collected as the S15 fraction. The mitochondrial pellet is washed three times with buffer B (250 mM sucrose, 10 mM Tris, pH 7.4), and re-suspended in buffer B at 20-30 mg/mL. Mitochondria are diluted (0.5 mg/mL) in buffer C (200 mM sucrose, 10 mM Tris, pH 7.4, 1 mM KH2PO4, 10 μM EGTA, 2.5 μM rotenone, 5 mM succinate) containing 2′,7′-dichlorodihydrofluorescin diacetate (DCFH-DA, 1 μM). For state 3 measurements, ADP (2 mM) is included in the buffer, and prior to the addition of Bz-423, mitochondria are allowed to charge for 2 min. To induce state 4, oligomycin (10 μM) is added to buffer C. […] To detect effects on O2^− and delta ψm, mitochondria are incubated for 15 min at 37° C. in buffer C with vehicle, Bz-423, or CCCP containing DHE (5 μM) or DIOC6(3) (20 nM), and aliquots are removed for analysis by fluorescence microscopy.
O2^− production by Bz-423 may result from binding to a protein within mitochondria or a target in another compartment that signals mitochondria to generate ROS. To distinguish between these alternatives, isolated rat liver mitochondria were assayed for ROS production by monitoring the oxidation of 2′,7′-dichlorodihydrofluorescin diacetate to of 2′,7′-dichlorofluorescin in the presence and absence of Bz-423. In this assay, the rate of DCF production increased after a lag period during which endogenous reducing equivalents were consumed and the acetate moieties on the probe were hydrolyzed to yield 2′,7′-dichlorodihydrofluorescin, the redox-active species.

[5] = tested on: migration inhibitory factor (MIF); test: gene expression profiling of treated cells; type: cell-based, human
From the text: In response to antigenic or mitogenic stimulation, lymphocytes secrete protein mediators, one of which is named migration inhibitory factor (MIF) for its ability to prevent the migration of macrophages in vitro. MIF may be an anti-tumor agent. In addition, the ability of MIF to prevent the migration of macrophages may be exploited for treating wounds. MIF may alter the immune response to different antigens. MIF links chemical and immunological detoxification systems. MIF was induced approximately 10-fold by Bz-423. Thus, the present invention contemplates the use of MIF as a target of the compounds of the present invention.
In vitro testing with Ramos cells to determine the changes in gene expression (at the level of mRNA) induced by Bz-423 was performed by culturing cells at a density of 500,000 cells per ml. Solvent control (DMSO, final concentration 0.1% V/V]), Bz-423, or Bz-OMe (10 μM) was added to cells. After 4 h, cells were harvested and RNA prepared using Trizol Reagent (#15596-018, Life Technologies, Rockville, Md.) and the RNeasy Maxi Kit (#75162, Qiagen, Valencia, Calif.) according to manufacturers protocols. Single stranded cDNA was synthesized by reverse transcription using poly (A) RNA present in the starting total RNA sample. […] Hybridization results were quantified using a GeneArray scanner and analysis carried out according to the instructions provided by Affymetrix.

Ramos cells = test: cytotoxicity versus antiproliferation in media with 10% FBS; type: cell-based, human; details: >20 μM
Method: Like most 1,4-benzodiazepines, Bz-423 binds strongly to bovine serum albumin (BSA), which reduces the effective concentration of drug free in solution. For example, in tissue culture media containing 10% (v/v) fetal bovine serum (FBS), ca. 99% of the drug is bound to BSA. Therefore, cell culture cytotoxicity assays are conducted in media with 2% FBS to reduce binding to BSA and increase the free [Bz-423]. Under these conditions, the dose response-curve is quite sharp such that there is a limited concentration range at which Bz-423 is only partly effective. Since some benzodiazepines are known to have anti-proliferative properties, the effect of Bz-423 at concentrations <ED50 were carefully analyzed and observed that in addition to inducing apoptosis, Bz-423 prevented cell growth after 3 d in culture. In these low serum conditions, the cytotoxic and anti-proliferative effects overlapped making it difficult to study each effect independently. […] While higher amounts of drug may also block proliferation, it caused apoptosis well before the effects on proliferation could be observed.

B cells = test: collapse of mitochondrial transmembrane potential, DiOC6(3); type: cell-based; details: by 5 hours
Method: To detect O2^−, cells are incubated with DHE (10 μM) for 30 min at 37° C. and are analyzed by flow cytometry to measure ethidium fluorescence. Flow analysis of mitochondrial transmembrane potential (ψm) is conducted by labeling cells with DiOC6(3) (20 nM) for 15 min at 37 degrees C. A positive control for disruption of ψm is established using carbonyl cyanide m-chlorophenylhydrazone (CCCP, 50 μM). Caspase activation assays are performed with FAM-VAD-fluoromethylketone. Processing of the substrate is evaluated by flow cytometry.
To characterize the death mechanism engaged by Bz-423, intracellular ROS, ΔΨm, cytochrome c release, caspase activation, and DNA fragmentation were measured over time (the results presented are for B cells but do characterize the response in many different cell types). The first event detected after exposure to Bz-423 is an increase in the fraction of cells that stain with dihyroethedium (DHE), a redox-sensitive agent that reacts specifically with O2^−.
Collapse of ΔΨm was detected using DiOC6(3), a mitochondria-selective potentiometric probe.

Namalwa ρ0 cells = test: ROS response in cells devoid of mtDNA; type: cell-based
Method: ROS in response to Bz-423. Complexes I-IV in the MRC are partially encoded by mitochondrial DNA (mtDNA). […] Because ethidium bromide is toxic to Ramos cells, these experiments were conducted with Namalwa B cells, another mature B cell line.

panel of cells = test: antiproliferation of Bz-Cl against the panel of cells, 3 d; type: cell-based; details: after 3 d

CN1C(=O)CN=C(c2ccc(Cl)cc2)c2cc(Cl)ccc21 [4-Cl-diazepam, 4-chlorodiazepam]
inhibition of mitochondrial ATPase activity [1]: do not significantly inhibit

CN1C(=O)C(Cc2ccc3ccccc3c2)N=C(c2ccc(O)cc2)c2cc(Cl)ccc21 (stereo not shown) [Bz-423]
effect on ODC activity [2]: significantly reduced ODC activity in a dose-dependant fashion | substrate oxidation (redox cycling) [3]: does not lead to substrate oxidation | ROS production [4]: does not stimulate ROS | increase of the rate of ROS production versus control [4]: nearly two-fold | induction of MIF [5]: approximately 10 fold | cellular effect observed (Ramos cells): only apoptosis was observed | cells with collapse of ΔΨm (B cells): > 90 % of cells | ROS response (Namalwa ρ0 cells): did not result in an ROS response

CN1C(=O)C(Cc2ccc3ccccc3c2)N=C(c2ccc(Cl)cc2)c2cc(Cl)ccc21 (stereo not shown) [Bz-Cl]
ED50 for reduced proliferation compared with Bz-423 (panel of cells): comparable ED50 values

CCC(C)N(C)C(=O)c1cc2ccccc2c(-c2ccccc2Cl)n1 (stereo not shown) [PK11195]
inhibition of mitochondrial ATPase activity [1]: do not significantly inhibit

antimycin A [reference compound]
ROS production [4]: active | increase of the rate of ROS production versus control [4]: nearly two-fold
